The target of assay [1] is T1, human GSK-3β (Homo sapiens (Human), UniProt P49841). The assay can be described thus: Activity on human GSK-3β, LANCE substrate phosphorylation assay. The assay is classed as biochemical. To be noted: for IC50: compounds 1 to 15, LANCE assay, five concentrations 100 μM to 10 nM. How it is done:
Activity on human GSK-3β was assessed using the following methods (according to Meijer et al., Chem. Biol., 2003-10:1255-1266).
In a first screening assay, compounds were tested in duplicate at a concentration of 10 μM.
Human recombinant enzyme GSK-3β was incubated for 90 minutes at 22° C. in the presence of compounds or vehicle in a reaction buffer containing ATP plus 100 nM unphosphorylated specific substrate peptide (Ulight-[…] K-amide). Substrate phosphorylation was measured by LANCE technology (PerkinElmer, Conn., USA).
In a second assay, the same compounds were assayed at five concentrations ranging from 100 μM to 10 nM with ten-fold dilutions in duplicate.
(§1) The IC50 values (concentration causing a half maximal inhibition of control specific activity), reported in table 4, were determined by non-linear regression analysis of the inhibition curves generated with mean replicate values using Hill equation curve fitting.
A general note: In TR-FRET formats the signal depends on donor and acceptor labels being close together.

For assay [2], the target named is T1, human GSK-3β. Put plainly: GSK-3β LanthaScreen TR-FRET Eu Kinase binding and displacement assay. The note with it: compounds 16 to 41, LanthaScreen TR-FRET binding and displacement assay, five concentrations 100 μM to 10 nM. The protocol: In a second assay, the same compounds were assayed at five concentrations ranging from 100 μM to 10 nM with ten-fold dilutions in duplicate. Compounds 1 to 15 were tested using the same first assay, compounds 16 to 41 were tested in another assay based on the binding and displacement of AlexaFluor® 647 labeled, ATP-competitive Kinase inhibitor scaffold using LanthaScreen™ TR-FRET technology Eu Kinase assay packet according to manufacturer's instruction (Life Technologies, Italy).
as §1

Assay [3] concerns the target IRK (h) (InsR) (Homo sapiens (Human), UniProt P06213). The assay can be described thus: Kinase selectivity panel: IRK (h) (InsR). Format: biochemical. The note with it: 10 μM in duplicate, read-out: % inhibition of control values. The protocol: (§2) (a) Compounds 1 and 2 were tested against a panel of 60 kinases in order to assess their selectivity. The assays were chosen taking into consideration the diversity of assay families.
(§3) Tested kinases were representative of following kinase sub-families: • protein-serine/threonine kinases; • protein-tyrosine kinases; • other kinases; and • atypical kinases.
(§4) Human recombinant kinases were incubated in the presence of specific peptide substrates plus ATP for different times (10, 15, 30, 60 or 90 minutes) at 22° C. Phosphorylated substrate was detected by LANCE or HTRF technology (CISBIO, MA, USA). The compounds were tested at 10 μM in duplicate.
(§5) The results are expressed as a percentage of inhibition of control specific activity obtained in the presence of the test compounds and are reported in the following Table 5.
(§6) (b) Compounds 3, 8, 29 and 31 were tested against the same panel of 60 kinases under the same conditions described above for compounds 1 and 2.
(§7) The results are expressed as a percent of inhibition of control specific activity obtained in the presence of the test compounds and are reported in the following Table 6.

For assay [4], the target named is TRKA (h) (Homo sapiens (Human), UniProt P04629). The assay can be described thus: Kinase selectivity panel: TRKA (h). Format: biochemical. To be noted: 10 μM in duplicate, read-out: % inhibition of control values. How it is done: as §2, §3, §4, §5, §6, §7
Chain of TRKA (h) (P04629 33-796): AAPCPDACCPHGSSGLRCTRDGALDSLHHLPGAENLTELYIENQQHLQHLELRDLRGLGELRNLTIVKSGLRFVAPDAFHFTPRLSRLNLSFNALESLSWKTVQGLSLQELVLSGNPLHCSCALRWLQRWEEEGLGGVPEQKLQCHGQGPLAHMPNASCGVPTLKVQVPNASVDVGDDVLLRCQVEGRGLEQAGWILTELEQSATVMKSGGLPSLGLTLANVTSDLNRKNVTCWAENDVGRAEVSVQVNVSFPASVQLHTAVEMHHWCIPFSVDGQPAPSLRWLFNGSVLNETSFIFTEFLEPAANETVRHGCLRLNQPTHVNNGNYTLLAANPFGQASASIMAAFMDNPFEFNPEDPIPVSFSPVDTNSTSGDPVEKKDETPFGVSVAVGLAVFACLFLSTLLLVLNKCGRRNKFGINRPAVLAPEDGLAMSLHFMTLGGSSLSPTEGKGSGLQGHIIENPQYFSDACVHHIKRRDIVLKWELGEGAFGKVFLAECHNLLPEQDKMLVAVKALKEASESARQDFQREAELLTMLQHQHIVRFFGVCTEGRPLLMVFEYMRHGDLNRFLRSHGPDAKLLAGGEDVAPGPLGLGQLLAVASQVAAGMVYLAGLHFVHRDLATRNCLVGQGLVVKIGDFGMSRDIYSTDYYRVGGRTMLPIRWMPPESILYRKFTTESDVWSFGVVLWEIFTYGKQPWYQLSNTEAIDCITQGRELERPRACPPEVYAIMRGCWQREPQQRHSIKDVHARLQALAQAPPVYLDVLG
Assay [5] concerns the target Src kinase (h) (Homo sapiens (Human), UniProt P12931). Put plainly: Kinase selectivity panel: Src kinase (h). To be noted: 10 μM in duplicate, read-out: % inhibition of control values. The assay is classed as biochemical. The protocol: as §2, §3, §4, §5, §6, §7
Assay [6] deals with GSK3beta (h) (Homo sapiens (Human), UniProt P49841). The assay can be described thus: Kinase selectivity panel: GSK3beta (h). The assay is classed as biochemical. The note with it: for inhibition at 10 µM: GSK3beta (h), 10 μM in duplicate, read-out: % inhibition of control values; for selectivity for GSK-3β compared to the other kinases of the panel: panel of 60 kinases, 10 μM, conclusion in words. The protocol:
as §2, §3, §4, §5, §7

The target in assay [7] is DYRK1a (h) (Homo sapiens (Human), UniProt Q13627). The assay can be described thus: Kinase selectivity panel: DYRK1a (h). The assay is classed as biochemical. To be noted: 10 μM in duplicate, read-out: % inhibition of control values. The protocol: as §2, §3, §4, §5, §6, §7
For assay [8], the target named is PCTAIRE1 kinase (h) (Homo sapiens (Human), UniProt Q00536). Put plainly: Kinase selectivity panel: PCTAIRE1 kinase (h). Format: biochemical. The note with it: 10 μM in duplicate, read-out: % inhibition of control values. How it is done:
as §2, §3, §4, §5, §6, §7

The target of assay [9] is CDC2/CDK1 (h) (cycB) (Homo sapiens (Human), UniProt P06493). The assay can be described thus: Kinase selectivity panel: CDC2/CDK1 (h) (cycB). The assay is classed as biochemical. To be noted: 10 μM in duplicate, read-out: % inhibition of control values. The protocol:
as §2, §3, §4, §5, §6, §7

Assay [10] deals with CDK2 (h) (cycA) (Homo sapiens (Human), UniProt P24941). Put plainly: Kinase selectivity panel: CDK2 (h) (cycA). Format: biochemical. The note with it: 10 μM in duplicate, read-out: % inhibition of control values. The protocol:
as §2, §3, §4, §5, §6, §7

Assay [11] has as its target CDK5/p35 (h) (Homo sapiens (Human), UniProt Q00535). Put plainly: Kinase selectivity panel: CDK5/p35 (h). Format: biochemical. To be noted: 10 μM in duplicate, read-out: % inhibition of control values. How it is done:
as §2, §3, §4, §5, §6, §7

Assay [12] has as its target ERK1 (h) (Homo sapiens (Human), UniProt P27361). Put plainly: Kinase selectivity panel: ERK1 (h). The note with it: 10 μM in duplicate, read-out: % inhibition of control values. Format: biochemical. How it is done: as §2, §3, §4, §5, §6, §7
Assay [13] addresses ERK2 (h) (P42mapk) (Homo sapiens (Human), UniProt P28482). The assay can be described thus: Kinase selectivity panel: ERK2 (h) (P42mapk). The assay is classed as biochemical. The note with it: 10 μM in duplicate, read-out: % inhibition of control values. The protocol: as §2, §3, §4, §5, §6, §7
In assay [14] the target is smMLCK (h) (MYLK) (Homo sapiens (Human), UniProt Q15746). Put plainly: Kinase selectivity panel: smMLCK (h) (MYLK). The assay is classed as biochemical. The note with it: 10 μM in duplicate, read-out: % inhibition of control values. How it is done:
as §2, §3, §4, §5, §6, §7

Assay [15] addresses HGK (h) (MAP4K4) (Homo sapiens (Human), UniProt O95819). Put plainly: Kinase selectivity panel: HGK (h) (MAP4K4). Format: biochemical. To be noted: 10 μM in duplicate, read-out: % inhibition of control values. How it is done: as §2, §3, §4, §5, §6, §7
For assay [16], the target named is MEK1/MAP2K1 (h) (Homo sapiens (Human), UniProt Q02750). Put plainly: Kinase selectivity panel: MEK1/MAP2K1 (h). To be noted: 10 μM in duplicate, read-out: % inhibition of control values. The assay is classed as biochemical. The protocol:
as §2, §3, §4, §5, §6, §7

Assay [17] concerns the target TAOK2 (TAO1) (h) (Homo sapiens (Human), UniProt Q9UL54). Put plainly: Kinase selectivity panel: TAOK2 (TAO1) (h). Format: biochemical. The note with it: 10 μM in duplicate, read-out: % inhibition of control values. The protocol:
as §2, §3, §4, §5, §6, §7

The target of assay [18] is NEK1 (h) (Homo sapiens (Human), UniProt Q96PY6). Put plainly: Kinase selectivity panel: NEK1 (h). Format: biochemical. To be noted: 10 μM in duplicate, read-out: % inhibition of control values. How it is done:
as §2, §3, §4, §5, §6, §7

Chain of GSK3beta (h) (P49841 whole entry): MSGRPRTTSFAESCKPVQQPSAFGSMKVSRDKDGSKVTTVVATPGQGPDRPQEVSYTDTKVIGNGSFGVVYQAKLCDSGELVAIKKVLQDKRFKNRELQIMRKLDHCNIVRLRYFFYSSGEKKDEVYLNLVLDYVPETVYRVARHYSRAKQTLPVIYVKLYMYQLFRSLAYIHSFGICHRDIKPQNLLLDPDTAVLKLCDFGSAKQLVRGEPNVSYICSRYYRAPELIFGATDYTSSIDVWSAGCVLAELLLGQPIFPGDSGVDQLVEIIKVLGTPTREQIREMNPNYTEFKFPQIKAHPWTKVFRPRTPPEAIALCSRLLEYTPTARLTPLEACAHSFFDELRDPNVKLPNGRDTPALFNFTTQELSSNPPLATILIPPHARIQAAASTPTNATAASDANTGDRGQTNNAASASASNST
T1 sequence (P49841 whole entry): as above
Chain of MEK1/MAP2K1 (h) (Q02750 whole entry): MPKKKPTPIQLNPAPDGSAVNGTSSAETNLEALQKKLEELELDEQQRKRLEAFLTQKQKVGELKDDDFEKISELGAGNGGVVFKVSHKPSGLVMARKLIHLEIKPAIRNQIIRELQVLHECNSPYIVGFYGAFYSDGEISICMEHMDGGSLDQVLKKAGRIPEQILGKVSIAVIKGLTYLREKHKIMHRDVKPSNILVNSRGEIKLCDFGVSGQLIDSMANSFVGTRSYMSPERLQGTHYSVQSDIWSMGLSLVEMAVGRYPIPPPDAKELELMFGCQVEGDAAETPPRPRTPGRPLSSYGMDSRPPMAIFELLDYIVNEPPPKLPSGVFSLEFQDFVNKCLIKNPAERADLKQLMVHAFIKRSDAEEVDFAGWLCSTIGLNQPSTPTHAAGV
Chain of NEK1 (h) (Q96PY6 whole entry): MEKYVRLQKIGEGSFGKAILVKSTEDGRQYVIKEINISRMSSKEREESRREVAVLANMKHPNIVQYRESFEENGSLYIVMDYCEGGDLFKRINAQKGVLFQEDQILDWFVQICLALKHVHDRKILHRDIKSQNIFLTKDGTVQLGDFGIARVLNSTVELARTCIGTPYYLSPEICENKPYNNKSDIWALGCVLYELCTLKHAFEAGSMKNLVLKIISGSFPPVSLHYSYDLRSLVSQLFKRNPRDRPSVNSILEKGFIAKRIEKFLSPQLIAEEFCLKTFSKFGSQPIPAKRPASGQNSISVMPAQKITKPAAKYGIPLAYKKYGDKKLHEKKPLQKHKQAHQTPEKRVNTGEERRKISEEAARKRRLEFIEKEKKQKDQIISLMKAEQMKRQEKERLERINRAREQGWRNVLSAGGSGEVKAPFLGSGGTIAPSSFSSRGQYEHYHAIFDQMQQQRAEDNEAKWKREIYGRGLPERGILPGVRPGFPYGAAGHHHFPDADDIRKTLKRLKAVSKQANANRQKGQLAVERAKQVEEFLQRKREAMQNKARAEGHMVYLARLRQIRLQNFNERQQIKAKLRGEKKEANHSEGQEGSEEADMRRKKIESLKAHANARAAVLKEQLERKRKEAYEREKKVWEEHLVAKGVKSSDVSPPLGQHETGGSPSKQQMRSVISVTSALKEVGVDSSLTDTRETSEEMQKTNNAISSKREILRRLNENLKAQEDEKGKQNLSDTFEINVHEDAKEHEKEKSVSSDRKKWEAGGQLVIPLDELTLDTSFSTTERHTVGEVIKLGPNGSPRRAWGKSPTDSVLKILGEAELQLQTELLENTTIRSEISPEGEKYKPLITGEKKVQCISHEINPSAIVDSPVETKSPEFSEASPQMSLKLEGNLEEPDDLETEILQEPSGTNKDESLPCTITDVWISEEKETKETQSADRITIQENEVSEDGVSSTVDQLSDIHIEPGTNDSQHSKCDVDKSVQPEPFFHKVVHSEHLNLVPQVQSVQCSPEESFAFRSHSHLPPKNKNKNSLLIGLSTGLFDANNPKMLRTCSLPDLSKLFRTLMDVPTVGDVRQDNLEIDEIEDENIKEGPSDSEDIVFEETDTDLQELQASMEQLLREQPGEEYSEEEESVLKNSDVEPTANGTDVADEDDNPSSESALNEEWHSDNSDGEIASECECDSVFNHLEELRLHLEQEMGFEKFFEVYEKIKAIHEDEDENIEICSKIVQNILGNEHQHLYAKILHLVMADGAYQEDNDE
Chain of Src kinase (h) (P12931 whole entry, looked up): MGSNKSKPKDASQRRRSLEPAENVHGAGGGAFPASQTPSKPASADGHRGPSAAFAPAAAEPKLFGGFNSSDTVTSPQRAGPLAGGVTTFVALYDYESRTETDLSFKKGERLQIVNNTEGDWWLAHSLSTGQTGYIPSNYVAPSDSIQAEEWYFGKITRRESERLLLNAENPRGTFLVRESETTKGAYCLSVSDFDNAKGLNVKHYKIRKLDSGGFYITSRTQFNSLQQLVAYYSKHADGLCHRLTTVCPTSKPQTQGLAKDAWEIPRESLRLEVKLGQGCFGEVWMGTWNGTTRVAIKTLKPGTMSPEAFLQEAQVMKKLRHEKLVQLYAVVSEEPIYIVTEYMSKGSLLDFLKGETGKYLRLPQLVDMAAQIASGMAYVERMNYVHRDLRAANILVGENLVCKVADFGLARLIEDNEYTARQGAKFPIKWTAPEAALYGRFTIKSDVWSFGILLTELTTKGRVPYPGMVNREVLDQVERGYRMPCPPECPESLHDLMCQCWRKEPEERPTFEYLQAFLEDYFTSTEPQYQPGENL
Chain of ERK2 (h) (P42mapk) (P28482 whole entry): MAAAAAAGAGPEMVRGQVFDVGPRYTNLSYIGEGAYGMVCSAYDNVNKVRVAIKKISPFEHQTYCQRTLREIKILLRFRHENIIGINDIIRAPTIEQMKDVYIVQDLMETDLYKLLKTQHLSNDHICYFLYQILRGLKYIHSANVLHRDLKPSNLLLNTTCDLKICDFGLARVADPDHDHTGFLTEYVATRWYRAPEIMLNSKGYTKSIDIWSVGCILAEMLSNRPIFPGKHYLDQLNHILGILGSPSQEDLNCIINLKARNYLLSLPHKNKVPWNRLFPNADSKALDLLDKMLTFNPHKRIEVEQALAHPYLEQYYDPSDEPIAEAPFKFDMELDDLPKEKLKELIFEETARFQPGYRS
Chain of CDK5/p35 (h) (Q00535 whole entry): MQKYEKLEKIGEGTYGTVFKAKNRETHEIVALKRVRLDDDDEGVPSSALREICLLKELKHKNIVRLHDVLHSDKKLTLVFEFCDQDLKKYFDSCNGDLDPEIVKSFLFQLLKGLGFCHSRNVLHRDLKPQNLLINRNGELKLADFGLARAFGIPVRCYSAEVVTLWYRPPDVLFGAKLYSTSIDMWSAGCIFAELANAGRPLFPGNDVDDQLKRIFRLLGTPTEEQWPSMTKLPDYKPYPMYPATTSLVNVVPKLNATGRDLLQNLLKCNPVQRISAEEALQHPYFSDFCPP
Chain of CDK5/p35 (h) (Q15078 whole entry partner): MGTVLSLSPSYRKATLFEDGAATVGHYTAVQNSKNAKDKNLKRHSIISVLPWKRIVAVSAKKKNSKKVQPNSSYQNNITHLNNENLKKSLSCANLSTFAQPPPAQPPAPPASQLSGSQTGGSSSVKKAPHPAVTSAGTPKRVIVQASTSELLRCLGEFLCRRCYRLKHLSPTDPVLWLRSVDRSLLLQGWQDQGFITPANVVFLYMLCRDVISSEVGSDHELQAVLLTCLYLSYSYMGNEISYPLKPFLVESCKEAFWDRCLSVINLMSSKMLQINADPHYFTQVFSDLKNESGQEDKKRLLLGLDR
Chain of ERK1 (h) (P27361 whole entry): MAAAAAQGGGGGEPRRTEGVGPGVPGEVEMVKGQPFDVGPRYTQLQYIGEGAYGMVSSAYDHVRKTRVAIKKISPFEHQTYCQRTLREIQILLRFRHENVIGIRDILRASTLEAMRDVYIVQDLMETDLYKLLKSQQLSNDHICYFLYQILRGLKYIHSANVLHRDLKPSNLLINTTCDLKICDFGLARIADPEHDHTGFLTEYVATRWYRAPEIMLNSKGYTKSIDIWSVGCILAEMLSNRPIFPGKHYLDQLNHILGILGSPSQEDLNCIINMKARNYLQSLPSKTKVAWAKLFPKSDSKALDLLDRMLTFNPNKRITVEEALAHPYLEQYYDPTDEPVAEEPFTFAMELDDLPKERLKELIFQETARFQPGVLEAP

Consider `COCCN1CCC(CNC(=O)c2n[nH]c3ccc(-c4ccc(C)cc4)cc23)CC1` [Compound 13, N-{[1-(2-methoxyethyl)piperidin-4-yl]methyl}-5-(4-methylphenyl)-1H-indazole-3-carboxamide], for which half-maximal inhibition in [1] (IC50) was put at 560 nM.

As to `COCCN1CCC(CNC(=O)c2n[nH]c3ccc(-c4cccnc4OC)cc23)CC1` [Compound 14, N-{[1-(2-methoxyethyl)piperidin-4-yl]methyl}-5-(2-methoxypyridin-3-yl)-1H-indazole-3-carboxamide], half-maximal inhibition in assay [1] (IC50) was put at 1400 nM.

For `COCCN1CCC(CNC(=O)c2n[nH]c3ccc(-c4ccc(OC)nc4)cc23)CC1` [Compound 15, N-{[1-(2-methoxyethyl)piperidin-4-yl]methyl}-5-(6-methoxypyridin-3-yl)-1H-indazole-3-carboxamide], in assay [1], the IC50 (commonly the concentration needed to halve the response being measured) amounted to 50 nM.

In turn, `O=C(O)CN1CCC(CNC(=O)c2n[nH]c3ccc(-c4cccc(F)c4F)cc23)CC1` [Compound 29, {4-[({[5-(2,3-difluorophenyl)-1H-indazol-3-yl]carbonyl}amino)methyl]piperidin-1-yl}acetic acid] had an IC50 in assay [2] of 30 nM. In addition, the inhibition (as a rule, how much of the control response was suppressed) at 10 µM in assay [3] stood at 0%; in assay [4] it was 3%; in assay [5] it was 0%; in [6], 100%; in [7] it was 100%; in [8] it was 49%. Besides, the inhibition at 10 µM in [9] amounted to 80%; in assay [10], 77%; in [11], 77%; in assay [12], 61%; in assay [13], 67%; in assay [14], 17%. Also, the inhibition at 10 µM in assay [15] stood at 71%; in [16], 75%; in [17] it was 61%; in assay [18], 9%. In assay [6], the “selectivity for GSK-3β compared to the other kinases of the panel” value is listed as “good affinity to GSK-3β when compared to most of other kinases of the same family”.

In turn, `CCc1ccc2[nH]nc(C(=O)NCC3CCN(CC(=O)O)CC3)c2c1` [Compound 31, [4-({[(5-ethyl-1H-indazol-3-yl)carbonyl]amino}methyl)piperidin-1-yl]acetic acid] registered an IC50 in assay [2] of 960 nM. For the same compound, the inhibition at 10 µM in [3] was 0%; in assay [4], 0%; in assay [5], 9%; in assay [6], 89%; in assay [7], 77%; in [8], 27%. Besides, the inhibition at 10 µM in [9] was 10%; in assay [10], 35%; in [11], 16%; in [12], 1%; in assay [13] it was 9%; in [14] it was 1%. Further, the inhibition at 10 µM in assay [15] came to 10%; in [16] it was 9%; in assay [17], 9%; in assay [18], 0%. Also, in assay [6], the “selectivity for GSK-3β compared to the other kinases of the panel” value is recorded as “good selectivity profile”.

Turning to `O=C(O)CN1CCC(CNC(=O)c2n[nH]c3cc(O)c(Br)cc23)CC1` [Compound 41, [4-({[(5-bromo-6-hydroxy-1H-indazol-3-yl)carbonyl]amino}methyl)piperidin-1-yl] acetic acid], the inhibition at 10 µM in assay [1] (10 μM, in duplicate, first screening assay) was determined as 71%.

For the origin of these results see patent US9611249B2, “1H-indazole-3-carboxamide compounds as glycogen synthase kinase 3 beta inhibitors” (AZIENDE CHIMICHE RIUNITE ANGELINI FRANCESCO A.C.R.A.F. …, priority 2012, dated 2017).
